Source: PubChem BioAssay AID256 (DTP/NCI, 2004)
Toxic doses and inconclusive results are not listed. Rule for the calls: active = survival T/C of 150% or more; inactive = T/C below 125% in these data.

Test system: CD2F1 mice, L1210 leukemia ip, survival T/C
Experiment: NCI In Vivo Anticancer Drug Screen. Data for tumor model L1210 Leukemia (intraperitoneal) in CD2F1 (CDF1) mice
Settings: higher = longer survival
Method in brief: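 Vehicle-treated tumor-bearing mice served as controls (C) for compound-treated mice (T). Reported figure is T divided by C.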

[1] = endpoint: mean survival time, dose: 100.0 mg/kg/injection, schedule: Q04DX003 (ip), vehicle: saline with Tween-80
[2] = endpoint: mean survival time, dose: 200.0 mg/kg/injection, schedule: Q04DX003 (ip), vehicle: saline with Tween-80
[3] = endpoint: mean survival time, dose: 400.0 mg/kg/injection, schedule: Q04DX003 (ip), vehicle: saline with Tween-80
[4] = endpoint: mean survival time, dose: 50.0 mg/kg/injection, schedule: Q01DX009 (ip), vehicle: saline with Tween-80
[5] = endpoint: mean survival time, dose: 100.0 mg/kg/injection, schedule: Q04DX003 (ip), vehicle: saline
[6] = endpoint: mean survival time, dose: 100.0 mg/kg/injection, schedule: Q04DX003 (ip), vehicle: Klucel (hydroxypropylcellulose) (HPC)
[7] = endpoint: mean survival time, dose: 200.0 mg/kg/injection, schedule: Q04DX003 (ip), vehicle: Klucel (hydroxypropylcellulose) (HPC)
[8] = endpoint: mean survival time, dose: 400.0 mg/kg/injection, schedule: Q04DX003 (ip), vehicle: Klucel (hydroxypropylcellulose) (HPC)
[9] = endpoint: mean survival time, dose: 100.0 mg/kg/injection, schedule: Q01DX001 (ip), vehicle: saline with Tween-80
[10] = endpoint: mean survival time, dose: 200.0 mg/kg/injection, schedule: Q01DX001 (ip), vehicle: saline with Tween-80
[11] = endpoint: mean survival time, dose: 200.0 mg/kg/injection, schedule: Q01DX009 (ip), vehicle: saline with Tween-80
[12] = endpoint: mean survival time, dose: 100.0 mg/kg/injection, schedule: Q01DX009 (ip), vehicle: saline with Tween-80
[13] = endpoint: mean survival time, dose: 400.0 mg/kg/injection, schedule: Q01DX009 (ip), vehicle: saline with Tween-80
[14] = endpoint: mean survival time, dose: 25.0 mg/kg/injection, schedule: Q01DX009 (ip), vehicle: saline with Tween-80
[15] = endpoint: mean survival time, dose: 50.0 mg/kg/injection, schedule: Q01DX001 (ip), vehicle: saline with Tween-80
[16] = endpoint: mean survival time, dose: 12.5 mg/kg/injection, schedule: Q04DX003 (ip), vehicle: saline
[17] = endpoint: mean survival time, dose: 100.0 mg/kg/injection, schedule: Q01DX001 (ip), vehicle: saline
[18] = endpoint: mean survival time, dose: 200.0 mg/kg/injection, schedule: Q01DX001 (ip), vehicle: saline
[19] = endpoint: mean survival time, dose: 400.0 mg/kg/injection, schedule: Q01DX001 (ip), vehicle: saline

Measured: T/C

CC(=O)C[n+]1ccccc1Sc1ccc(Cl)cc1
inactive: endpoint: median survival time, dose: 12.5 mg/kg/injection, schedule: Q01DX005 (ip), vehicle: saline with Tween-80 100 % of control | endpoint: median survival time, dose: 25.0 mg/kg/injection, schedule: Q01DX005 (ip), vehicle: saline with Tween-80 101 % of control | endpoint: median survival time, dose: 50.0 mg/kg/injection, schedule: Q01DX005 (ip), vehicle: saline with Tween-80 97 % of control | endpoint: median survival time, dose: 100.0 mg/kg/injection, schedule: Q01DX005 (ip), vehicle: saline with Tween-80 107 % of control

COc1cc(NCCCCN2C(=O)c3ccccc3C2=O)c2ncccc2c1
inactive: [1] 97 % of control | [2] 102 % of control | [3] 96 % of control

OC(CF)CCl (stereo not drawn)
inactive: [4] 96 % of control | [5] 100 % of control | endpoint: mean survival time, dose: 200.0 mg/kg/injection, schedule: Q04DX003 (ip), vehicle: saline 121 % of control

O=c1[nH]c(SCc2ccccc2)nc(-c2ccc(Cl)cc2)c1CCO
inactive: endpoint: mean survival time, dose: 100.0 mg/kg/injection, schedule: Q01DX009 (ip), vehicle: Klucel (hydroxypropylcellulose) (HPC) 87 % of control | endpoint: mean survival time, dose: 200.0 mg/kg/injection, schedule: Q01DX009 (ip), vehicle: Klucel (hydroxypropylcellulose) (HPC) 89 % of control | endpoint: mean survival time, dose: 400.0 mg/kg/injection, schedule: Q01DX009 (ip), vehicle: Klucel (hydroxypropylcellulose) (HPC) 88 % of control

CN(C)N=Nc1cccc(Cl)c1
inactive: endpoint: mean survival time, dose: 79.0 mg/kg/injection, schedule: Q01DX009 (ip), vehicle: Klucel (hydroxypropylcellulose) (HPC) 111 % of control | endpoint: mean survival time, dose: 118.0 mg/kg/injection, schedule: Q01DX009 (ip), vehicle: Klucel (hydroxypropylcellulose) (HPC) 108 % of control | endpoint: mean survival time, dose: 177.0 mg/kg/injection, schedule: Q01DX009 (ip), vehicle: Klucel (hydroxypropylcellulose) (HPC) 123 % of control | endpoint: mean survival time, dose: 266.0 mg/kg/injection, schedule: Q01DX009 (ip), vehicle: Klucel (hydroxypropylcellulose) (HPC) 108 % of control

N=c1c2ncn(C3CCCC3)c2ncn1Cc1ccc([N+](=O)[O-])cc1
inactive: endpoint: mean survival time, dose: 75.0 mg/kg/injection, schedule: Q01DX001 (ip), vehicle: other 106 % of control

O=C1CN(c2ccc3ccccc3c2)NO1
inactive: [1] 93 % of control | [2] 93 % of control

CCCCCCCCCCCC(=O)CCCC
inactive: endpoint: mean survival time, dose: 100.0 mg/kg/injection, schedule: Q01DX009 (ip), vehicle: other 98 % of control | endpoint: mean survival time, dose: 100.0 mg/kg/injection, schedule: Q04DX003 (ip), vehicle: other 102 % of control | endpoint: mean survival time, dose: 200.0 mg/kg/injection, schedule: Q01DX009 (ip), vehicle: other 104 % of control | endpoint: mean survival time, dose: 200.0 mg/kg/injection, schedule: Q04DX003 (ip), vehicle: other 91 % of control | endpoint: mean survival time, dose: 400.0 mg/kg/injection, schedule: Q01DX009 (ip), vehicle: other 106 % of control | endpoint: mean survival time, dose: 400.0 mg/kg/injection, schedule: Q04DX003 (ip), vehicle: other 97 % of control

CC1OC(c2cnn(-c3ccccc3)n2)C(O)C1O (stereo not drawn)
inactive: endpoint: median survival time, dose: 12.5 mg/kg/injection, schedule: Q01DX005 (ip), vehicle: water 103 % of control | endpoint: median survival time, dose: 25.0 mg/kg/injection, schedule: Q01DX005 (ip), vehicle: water 102 % of control | endpoint: median survival time, dose: 50.0 mg/kg/injection, schedule: Q01DX005 (ip), vehicle: water 103 % of control | endpoint: median survival time, dose: 100.0 mg/kg/injection, schedule: Q01DX005 (ip), vehicle: water 100 % of control | endpoint: median survival time, dose: 200.0 mg/kg/injection, schedule: Q01DX005 (ip), vehicle: water 103 % of control

O=C1c2cccc(Cl)c2C(=O)c2c1cccc2[N+](=O)[O-]
inactive: [6] 90 % of control | [7] 102 % of control | [8] 98 % of control

N=C(N)SCCc1ccccc1
inactive: endpoint: mean survival time, dose: 12.5 mg/kg/injection, schedule: Q01DX001 (ip), vehicle: saline 95 % of control | endpoint: mean survival time, dose: 25.0 mg/kg/injection, schedule: Q01DX001 (ip), vehicle: saline 100 % of control | endpoint: mean survival time, dose: 50.0 mg/kg/injection, schedule: Q01DX001 (ip), vehicle: saline 103 % of control

CCN(CC)C(=O)C(C)C1CCC2C3CC=C4CC(OC(=O)c5cc([N+](=O)[O-])cc([N+](=O)[O-])c5)CCC4(C)C3CCC12C (stereo not drawn)
inactive: [9] 94 % of control | [10] 94 % of control | endpoint: mean survival time, dose: 400.0 mg/kg/injection, schedule: Q01DX001 (ip), vehicle: saline with Tween-80 98 % of control

NC(=O)c1cnn2ccn(C3OC(CO)C(O)C3O)c12 (stereo not drawn)
inactive: endpoint: median survival time, dose: 9.63 mg/kg/injection, schedule: Q01DX005 (ip), vehicle: water 102 % of control | endpoint: median survival time, dose: 19.25 mg/kg/injection, schedule: Q01DX005 (ip), vehicle: water 94 % of control | endpoint: median survival time, dose: 38.5 mg/kg/injection, schedule: Q01DX005 (ip), vehicle: water 104 % of control | endpoint: median survival time, dose: 77.0 mg/kg/injection, schedule: Q01DX005 (ip), vehicle: water 100 % of control | endpoint: median survival time, dose: 154.0 mg/kg/injection, schedule: Q01DX005 (ip), vehicle: water 93 % of control

CCOC(=O)CC1OCCO1
inactive: [1] 98 % of control | [2] 103 % of control | [3] 101 % of control

CC(C#N)(Nc1ccccc1)c1ccc(Cl)cc1 (stereo not drawn)
inactive: [4] 86 % of control | [11] 97 % of control | [2] 87 % of control

O=S(=O)(/N=C1\C=CC=C\C1=N/S(=O)(=O)c1ccccc1)c1ccccc1
inactive: [12] 95 % of control | [11] 92 % of control | [13] 98 % of control

C/C(=N/N(C)C)c1ccc2ccccc2c1
inactive: endpoint: mean survival time, dose: 12.5 mg/kg/injection, schedule: Q01DX009 (ip), vehicle: saline with Tween-80 97 % of control | endpoint: mean survival time, dose: 25.0 mg/kg/injection, schedule: Q01DX001 (ip), vehicle: saline with Tween-80 103 % of control | [14] 95 % of control | [15] 97 % of control | [9] 103 % of control

CCCCCC(=O)COCC
inactive: [1] 103 % of control | [2] 91 % of control | [3] 103 % of control

O=C1CC(CO)CN1CCc1ccccc1 (stereo not drawn)
inactive: [12] 96 % of control | [11] 92 % of control | [13] 95 % of control

COc1ccc2c(c1OC)C1C3CC=CC3C2C2=[N+]1CCc1cc3c(cc12)OCO3 (stereo not drawn)
inactive: [16] 97 % of control | endpoint: mean survival time, dose: 25.0 mg/kg/injection, schedule: Q04DX003 (ip), vehicle: saline 104 % of control | [5] 97 % of control

COc1ccc2c(c1)C/C(=N\O)C2=O
inactive: [14] 93 % of control | endpoint: mean survival time, dose: 25.0 mg/kg/injection, schedule: Q04DX003 (ip), vehicle: saline with Tween-80 95 % of control | [4] 97 % of control | endpoint: mean survival time, dose: 50.0 mg/kg/injection, schedule: Q04DX003 (ip), vehicle: saline with Tween-80 93 % of control | [1] 91 % of control

COC(=O)c1cccc2c(Cl)cc3ccccc3c12
inactive: [12] 105 % of control | [1] 98 % of control | [11] 105 % of control | [2] 104 % of control | [13] 103 % of control | [3] 97 % of control

CCOC(=O)/C=C/C(=O)O.[Zn+2]
inactive: endpoint: mean survival time, dose: 3.12 mg/kg/injection, schedule: Q04DX003 (ip), vehicle: saline 100 % of control | endpoint: mean survival time, dose: 6.25 mg/kg/injection, schedule: Q04DX003 (ip), vehicle: saline 100 % of control | [16] 100 % of control

COc1ccc(/C=C\[N+](=O)[O-])cc1OC
inactive: [6] 101 % of control | [7] 104 % of control | [8] 101 % of control

COc1ccc(/C=C/c2ccc3ccccc3n2)c(OC)c1
inactive: [12] 96 % of control | [1] 96 % of control | [11] 102 % of control | [2] 96 % of control | [13] 95 % of control | [3] 96 % of control

O=C(O)c1cc(Cl)c(Cl)cn1
inactive: [15] 97 % of control | [9] 98 % of control | [10] 103 % of control

Cc1cc(C)c(CC(C)C)c(C)c1
inactive: [17] 98 % of control | [18] 98 % of control | [19] 98 % of control

COc1ccc(-n2cc(C#N)c3c(C)cc(C)nc32)cc1
inactive: [17] 100 % of control | [18] 96 % of control | [19] 87 % of control

CC[C@@]1(O)C[C@H](OC2CC(N(C)C)C(OC3CC(O)C(OC4CC(O)C(O)C(C)O4)C(C)O3)C(C)O2)c2c(cc3c(c2O)C(=O)c2c(O)ccc(O)c2C3=O)[C@H]1C(=O)OC (stereo partly drawn)
inactive: endpoint: mean survival time, dose: 3.8 mg/kg/injection, schedule: Q01DX001 (ip), vehicle: other 117 % of control | endpoint: mean survival time, dose: 7.5 mg/kg/injection, schedule: Q01DX001 (ip), vehicle: other 120 % of control | endpoint: mean survival time, dose: 15.0 mg/kg/injection, schedule: Q01DX001 (ip), vehicle: other 96 % of control
